In ChEMBL document CHEMBL1132561, “Identification and characterization of m1 selective muscarinic receptor antagonists1” (J Med Chem, 1999):

What was measured:
[1] = target: T1, Muscarinic acetylcholine receptor M4 (Homo sapiens, UniProt P08173); assay: biochemical; assay type: cell-based, CHO
T1 sequence (P08173 whole entry): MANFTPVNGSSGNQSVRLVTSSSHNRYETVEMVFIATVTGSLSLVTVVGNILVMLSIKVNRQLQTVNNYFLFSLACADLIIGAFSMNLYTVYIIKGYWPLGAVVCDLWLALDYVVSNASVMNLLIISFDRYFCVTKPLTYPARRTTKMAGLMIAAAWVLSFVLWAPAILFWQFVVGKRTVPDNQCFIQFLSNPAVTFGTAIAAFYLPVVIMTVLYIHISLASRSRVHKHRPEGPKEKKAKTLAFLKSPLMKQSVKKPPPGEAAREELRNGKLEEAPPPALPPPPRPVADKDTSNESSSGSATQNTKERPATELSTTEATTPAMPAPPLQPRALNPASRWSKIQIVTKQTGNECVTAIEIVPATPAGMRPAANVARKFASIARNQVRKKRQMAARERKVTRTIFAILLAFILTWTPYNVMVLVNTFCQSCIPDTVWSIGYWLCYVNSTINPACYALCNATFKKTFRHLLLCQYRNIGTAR
Description: Displacement of [3H]NMS binding to human Muscarinic acetylcholine receptor M4 using membranes from transfected CHO cells

[2] = target: T2, Muscarinic acetylcholine receptor M2 (Homo sapiens, UniProt P08172); assay: biochemical; assay type: cell-based, CHO
T2 sequence (P08172 whole entry): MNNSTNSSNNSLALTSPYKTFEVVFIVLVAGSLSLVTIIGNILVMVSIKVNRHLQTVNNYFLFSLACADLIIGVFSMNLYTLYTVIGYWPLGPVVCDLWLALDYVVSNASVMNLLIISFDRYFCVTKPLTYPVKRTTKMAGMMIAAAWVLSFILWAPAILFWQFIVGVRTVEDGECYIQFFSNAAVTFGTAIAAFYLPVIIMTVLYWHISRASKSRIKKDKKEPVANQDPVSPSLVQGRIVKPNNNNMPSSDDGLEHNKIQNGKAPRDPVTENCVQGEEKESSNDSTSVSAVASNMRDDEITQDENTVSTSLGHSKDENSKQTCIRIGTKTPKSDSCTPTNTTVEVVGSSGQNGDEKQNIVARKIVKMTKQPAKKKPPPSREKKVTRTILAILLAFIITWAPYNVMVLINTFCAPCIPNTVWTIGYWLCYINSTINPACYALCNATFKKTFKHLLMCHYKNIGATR
Description: Displacement of [3H]NMS binding to human Muscarinic acetylcholine receptor M2 using membranes from transfected CHO cells

| SMILES | IC50 [1] [µM] | IC50 [2] [µM] |
| --- | --- | --- |
| CCCCCCCCOC(=O)C1=C(c2ccccc2)CCN(CC)C1 | 0.259 | 0.0525 |
| CCCCCCOC(=O)[C@H]1CN(CC)CC[C@H]1c1ccccc1 | 0.573 | 0.405 |
| CCN1CCC(c2ccccc2)=C(C(=O)OCC(c2ccccc2)c2ccccc2)C1 | 7.71 | 2.57 |
| CCN1CC=C(c2ccccc2)C(C(=O)OCCCc2ccccc2)C1 (configuration not stated) | 1.13 | 2.21 |
| CCN1CC=C(c2ccccc2)C(C(=O)OCc2ccccc2)C1 (configuration not stated) | 0.146 | 0.241 |
| CCN1CCC(c2ccccc2)=C(C(=O)OCCCc2ccccc2)C1 | 1.16 | 1.04 |
| CCCCCCCCOC(=O)C1CN(CC)CC=C1c1ccccc1 (configuration not stated) | 1.25 |  |
| CCN1CCC(c2ccccc2)=C(C(=O)OCc2ccccc2)C1 | 0.473 | 0.451 |
| CCN1CC=C(c2ccccc2)C(C(=O)OCC(c2ccccc2)c2ccccc2)C1 (configuration not stated) | 4.16 | 0.475 |
